ChEMBL document CHEMBL5576143, “Discovery of CW-3308 as a Potent, Selective, and Orally Efficacious PROTAC Degrader of BRD9” (J Med Chem, 2024)

Tests used:
in vitro [1] = settings: rat, liver microsomes
in vitro [2] = settings: human, liver microsomes
[3] = Volume of distribution at steady state in rat at 3 mg/kg, po or 1 mg/kg, iv; format: ADME, organism-based; settings: in vivo
[4] = Metabolic stability in monkey liver microsome assessed as half-life at 1 uM preincubated for 5 mins followed by NADPH addition and measured upto 60 mins by LC-MS/MS analysis; format: ADME, Macaca mulatta; settings: rhesus monkey, liver microsomes, time < 65 min
[5] = Metabolic stability in dog liver microsome assessed as half-life at 1 uM preincubated for 5 mins followed by NADPH addition and measured upto 60 mins by LC-MS/MS analysis; format: ADME, Canis lupus familiaris; settings: liver microsomes, time < 65 min
in vitro [6] = settings: mouse, liver microsomes
[7] = Oral bioavailability in rat at 3 mg/kg; format: ADME, organism-based; settings: in vivo
in vitro [8] = settings: human, Caco-2
[9] = Half-life in rat at 3 mg/kg, po or 1 mg/kg, iv; format: ADME, organism-based; settings: in vivo
[10] = AUC in rat at 3 mg/kg, po or 1 mg/kg, iv; format: ADME, organism-based; settings: in vivo
in vitro [11] = settings: human, Caco-2; remark: listed apart in the source
[12] = Cmax in rat at 3 mg/kg, po or 1 mg/kg, iv; format: ADME, organism-based; settings: in vivo

half-life at 1 h, 1 µM (in vitro [1])	half-life at 1 h, 1 µM (in vitro [2])	Vdss [3]	half-life at 1 µM [4]	half-life at 1 µM [5]	half-life at 1 h, 1 µM (in vitro [6])	bioavailability [7]	Papp A→B at 2 h, 10 µM (in vitro [8])	half-life [9]	AUC [10]	Papp B→A at 2 h, 10 µM (in vitro [11])	Cmax [12]	SMILES
> 1 h	> 1 h	5 L/kg	0.9 h	> 1 h	> 1 h	70%						CN1Cc2cc3c(cc2C1)C(=O)N(C1CCC(=O)NC1=O)C3=O (centres undefined)
> 1 h	> 1 h	2.9 L/kg	> 1 h	> 1 h	> 1 h	60%	2.55 ×10⁻⁶ cm/s	2.2 h	1500 ng·h/mL	6.8 ×10⁻⁶ cm/s	276 ng/mL	CN1Cc2cc3c(cc2C1)C(=O)N(C1CCC(=O)NC1=O)C3 (centres undefined)
